In brackets after ≈: the same amount, converted by molar mass. Several values for one entry are separate records, joined by “and”; a condition that tells them apart may be missing. Identical values can stand only once. Like-named read-outs stand apart in the source and are kept apart here.
Assays:
[1] = test system: M.tb isolates from BALB/c mice after four months of treatment; experiment: microbe, parasite or virus in culture; format: cell-based; details: Mycobacterium tuberculosis, read-out: minimum inhibitory concentration
wild type H37Rv = experiment: microbe, parasite or virus in culture; format: cell-based; details: Mycobacterium tuberculosis, read-out: minimal inhibitory concentration
M.tb H37Rv = experiment: Relapse 3 months after ending treatment, BALB/c mice; format: in vivo
[2] = for rifampin area under curve (0–18 h): rifampin 10 mg/kg
[3] = test system: JAK tyrosine kinase activity; details: ref Dowty et al., 2014; cited from earlier work
[4] = Observation of adverse effects in mice during the study period; format: in vivo; details: tofacitinib 30 mg/kg/day (the higher dose)
[5] = test system: bone marrow-derived macrophages (BMDM) from BALB/c and C3HeB/FeJ mice; format: cell-based
[6] = human, recommended doses; ref Dowty et al., 2014; cited from earlier work

In the case of `NNC(=O)c1ccncc1` [isoniazid], the MIC [1] is reported as 0.04 µg/mL (≈ 0.292 µM).
In the case of `C[C@@H]1CCN(C(=O)CC#N)C[C@@H]1N(C)c1ncnc2[nH]ccc12` [tofacitinib], the MIC (wild type H37Rv) is reported as over 64 µg/mL, the “relapse rate, Std-Rx plus tofacitinib versus Std-Rx alone” value (M.tb H37Rv) is reported as “did not differ” and the “peak tofacitinib serum concentration in mice during PK experiments” value ([2]; as stated in section 3.3) is reported as 3 µg/mL. The “effect of tofacitinib co-administration on the serum concentration of rifampin” value ([2]; mice, tofacitinib 15, 22.5, 30 mg/kg/day with rifampin 10 mg/kg) was “no effect”, the “concentration of tofacitinib 2 h after the dose” value ([2]; mouse serum, with or without co-administration of rifampin, all doses tested) was 250 to 500 ng/mL and the “average exposure in mice relative to patients with rheumatoid arthritis on 10 mg per day” value ([2]; tofacitinib 30 mg/kg/day in two divided doses) was “at least three to five”. For the same compound, the “concentration of tofacitinib required to inhibit JAK tyrosine kinase activity” value [3] was 100 nM and 31.2 ng/mL, the “adverse effects in mice” value [4] was “did not observe any adverse effects” and the “effect on cytokine levels (TNF-α, IL-1β) of BMDMs” value [5] was “did not alter the cytokine levels”. For the same compound, the elimination half-life [6] was ~ 3 h.
With `CO[C@H]1/C=C/O[C@@]2(C)Oc3c(C)c(O)c4c(O)c(c(/C=N/N5CCN(C)CC5)c(O)c4c3C2=O)NC(=O)/C(C)=C\C=C\[C@H](C)[C@H](O)[C@@H](C)[C@@H](O)[C@@H](C)[C@H](OC(C)=O)[C@@H]1C` [rifampin] the “rifampin area under curve (0–18 h)” value ([2]; mouse serum, co-administered tofacitinib 15 mg/kg) was 77 μg/ml·H, the “rifampin area under curve (0–18 h)” value ([2]; mouse serum, co-administered tofacitinib 22.5 mg/kg) was 93 μg/ml·H and the “rifampin area under curve (0–18 h)” value ([2]; mouse serum, co-administered tofacitinib 30 mg/kg) was 103 μg/ml·H. It also gave an MIC [1] of 0.25 µg/mL (≈ 0.304 µM).

Reference: publication PMC4563140 (EBioMedicine, 2015)
